Assay results published in US20210127673A1, “HERBICIDES” (SYNGENTA PARTICIPATIONS AG, priority 2016, published 2021).

Key:
Assay type in all cases: in vivo
Details in all cases: 1000 g/ha, evaluated after 13 days
[1] = system: Triticum aestivium (TRZAW); experiment: Pre-emergence herbicidal activity, Triticum aestivium; set-up: key: 5=total damage to plant; 0=no damage to plant
Outline: (§1)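 Seeds sown in standard soil in pots, grown one day in a glasshouse (24/16 °C day/night, 14 h light, 65% humidity), then sprayed pre-emergence with compound in acetone/water (50:50) containing 0.5% Tween 20. Plants were scored after 13 days on a 0–5 scale (5 = total damage, 0 = none).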

[2] = system: Avena fatua (AVEFA); experiment: Pre-emergence herbicidal activity, Avena fatua; set-up: key: 5=total damage to plant; 0=no damage to plant
Outline: as §1

[3] = system: Alopecurus myosuroides (ALOMY); experiment: Pre-emergence herbicidal activity, Alopecurus myosuroides; set-up: key: 5=total damage to plant; 0=no damage to plant
Outline: as §1

[4] = system: Echinochloa crus-galli (ECHCG); experiment: Pre-emergence herbicidal activity, Echinochloa crus-galli; set-up: key: 5=total damage to plant; 0=no damage to plant
Outline: as §1

[5] = system: Lolium perenne (LOLPE); experiment: Pre-emergence herbicidal activity, Lolium perenne; set-up: key: 5=total damage to plant; 0=no damage to plant
Outline: as §1

[6] = system: Setaria faberi (SETFA); experiment: Pre-emergence herbicidal activity, Setaria faberi; set-up: key: 5=total damage to plant; 0=no damage to plant
Outline: as §1

[7] = system: Triticum aestivium (TRZAW); experiment: Post-emergence herbicidal activity, Triticum aestivium
Outline: (§2)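 Post-em, 8 d plants, pots; acetone:water 1:1 + 0.5% Tween 20 spray; 24/16 °C, 14 h photoperiod, 65% RH; 13 d readout, 0–5 phytotoxicity scale.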

[8] = system: Avena fatua (AVEFA); experiment: Post-emergence herbicidal activity, Avena fatua
Outline: as §2

[9] = system: Alopecurus myosuroides (ALOMY); experiment: Post-emergence herbicidal activity, Alopecurus myosuroides; set-up: key: 5=total damage to plant; 0=no damage to plant
Outline: as §2

[10] = system: Echinochloa crus-galli (ECHCG); experiment: Post-emergence herbicidal activity, Echinochloa crus-galli; set-up: key: 5=total damage to plant; 0=no damage to plant
Outline: as §2

[11] = system: Lolium perenne (LOLPE); experiment: Post-emergence herbicidal activity, Lolium perenne
Outline: as §2

[12] = system: Setaria faberi (SETFA); experiment: Post-emergence herbicidal activity, Setaria faberi; set-up: key: 5=total damage to plant; 0=no damage to plant
Outline: as §2

SMILES	Control of TRAZW after pre-emergence application (score 0-5) [1]	Control of AVEFA after pre-emergence application (score 0-5) [2]	Control of ALOMY after pre-emergence application (score 0-5) [3]	Control of ECHCG after pre-emergence application (score 0-5) [4]	Control of LOLPE after pre-emergence application (score 0-5) [5]	Control of SETFA after pre-emergence application (score 0-5) [6]	Control of TRAZW after post-emergence application (score 0-5) [7]	Control of AVEFA after post-emergence application (score 0-5) [8]	Control of ALOMY after post-emergence application (score 0-5) [9]	Control of ECHCG after post-emergence application (score 0-5) [10]	Control of LOLPE after post-emergence application (score 0-5) [11]	Control of SETFA after post-emergence application (score 0-5) [12]
CC(C)(C)OC(=O)N(C(=O)OC(C)(C)C)c1ccc(-c2cncc(F)c2)nc1C(F)(F)F [Compound B113]	0	3	1	5	1	5	2	4	1	5	3	5
CC(C)(C)OC(=O)Nc1ccc(-c2cncc(F)c2)nc1C#N [Compound B34, tert-butyl N-[2-cyano-6-(5-fluoro-3-pyridyl)-3-pyridyl]carbamate]	0	0	0	4	1	5	1	2	0	5	1	4
CN(C(=O)N1CCOCC1)c1ccc(-c2cncc(F)c2)nc1C(F)(F)F [Compound B67]	0	0	0	3	1	4	1	2	1	4	1	4
O=C(Nc1ccccc1)Nc1ccc(-c2cncc(F)c2)nc1C(F)(F)F [Compound B71]	0	0	0	1	0	1	1	2	0	3	2	3
C=CCN(C(=O)OC(C)(C)C)c1ccc(-c2cncnc2)nc1C(F)(F)F [Compound B35]	0	0	0	2	1	4	1	2	0	3	2	5
CC(C)NC(=O)Nc1ccc(-c2cncnc2)nc1C(F)(F)F [Compound B44]	0	2	0	3	1	3	1	3	1	4	2	4
O=C(Nc1ccc(-c2cncc(F)c2)nc1C(F)(F)F)N1CCSC1 [Compound B68, N-[6-(5-fluoro-3-pyridyl)-2-(trifluoromethyl)-3-pyridyl]thiazolidine-3-carboxamide]	0	2	1	3	1	4	2	3	0	5	2	5
CC(C)(C)OC(=O)Nc1ccc(-c2cncc(Cl)c2)nc1C(F)(F)F [Compound B6]	0	2	1	3	1	5	1	3	1	4	4	5
